Earlier results on one substance are cited in patent US20100267730A1, “NOVEL COMPOUNDS” (priority 2008, published 2010).

Data set [1] relates to freely-feeding rats. The note with it: central administration, 4 hour time period.
Data set [2] has as its system orexin receptors. The note with it: central administration at the onset of the normal sleep period, rat sleep/EEG.

“orexin-A: ligand (agonist) of the orexin receptors; human Orexin-A amino acid sequence SEQ ID NO: 1 (EPLPDCCRQKTCSCRLYELLHGAGNHAAGILTL; Homo sapien)”: the “increase in food intake over control rats receiving vehicle” value in data set [1] is “approximately four-fold”. Also, the effect on arousal result in data set [2] was “dose-related increase in arousal”.
